Read-outs that look alike come from different tables or passages of the source.
Columns and labels:
hA1AR = target: T1, hA1AR (Homo sapiens, UniProt P30542); assay: Radioligand binding in membranes of CHO cells expressing hA1AR, [3H]N6-R-phenylisopropyladenosine; details: read-out: A1AR % inhibition or Ki; for Ki: (h)
T1 construct: expressed in transfected cells; host or cells: CHO
T1 sequence (P30542 1-326): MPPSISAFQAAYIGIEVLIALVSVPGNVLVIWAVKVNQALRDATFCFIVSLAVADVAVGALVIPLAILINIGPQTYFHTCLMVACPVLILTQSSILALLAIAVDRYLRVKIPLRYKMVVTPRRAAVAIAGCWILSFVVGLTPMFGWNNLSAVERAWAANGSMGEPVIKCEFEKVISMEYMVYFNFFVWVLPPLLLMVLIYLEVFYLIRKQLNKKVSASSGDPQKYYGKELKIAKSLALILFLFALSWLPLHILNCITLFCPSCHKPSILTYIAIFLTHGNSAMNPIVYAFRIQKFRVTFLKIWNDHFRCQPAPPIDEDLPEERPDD

mA1AR = target: T2, mA1AR (Mus musculus, UniProt Q60612); assay: Adenosine receptor binding, mA1AR
T2 sequence (Q60612 1-326): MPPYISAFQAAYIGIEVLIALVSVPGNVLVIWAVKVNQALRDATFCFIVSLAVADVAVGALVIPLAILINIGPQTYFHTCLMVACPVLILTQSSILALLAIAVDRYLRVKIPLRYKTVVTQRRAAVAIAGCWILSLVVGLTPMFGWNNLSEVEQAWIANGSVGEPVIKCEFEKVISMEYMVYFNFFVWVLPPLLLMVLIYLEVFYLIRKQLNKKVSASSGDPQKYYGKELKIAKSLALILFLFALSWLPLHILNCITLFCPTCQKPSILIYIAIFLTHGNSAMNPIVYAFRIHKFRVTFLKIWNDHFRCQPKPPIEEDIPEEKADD

hA2AAR = target: T3, hA2AAR (Homo sapiens, UniProt P29274); assay: Radioligand binding in membranes of HEK293 cells expressing hA2AAR; details: read-out: A2AAR % inhibition; for Ki: (h), values without % sign (Ki)
T3 construct: expressed in transfected cells; host or cells: HEK293
T3 sequence (P29274 whole entry): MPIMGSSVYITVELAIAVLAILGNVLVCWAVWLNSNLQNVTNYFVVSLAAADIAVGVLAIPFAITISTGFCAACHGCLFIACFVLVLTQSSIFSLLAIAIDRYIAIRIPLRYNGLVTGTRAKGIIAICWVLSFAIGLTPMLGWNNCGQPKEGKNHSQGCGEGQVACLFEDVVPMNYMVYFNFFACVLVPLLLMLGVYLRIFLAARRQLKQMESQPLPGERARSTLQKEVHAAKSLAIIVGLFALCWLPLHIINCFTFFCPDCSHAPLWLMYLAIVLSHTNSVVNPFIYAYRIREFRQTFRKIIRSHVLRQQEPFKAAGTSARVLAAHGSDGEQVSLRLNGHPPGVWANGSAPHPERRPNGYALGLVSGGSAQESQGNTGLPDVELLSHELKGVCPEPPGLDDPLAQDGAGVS

mA2AAR = mA2AAR (Mus musculus, UniProt Q60613); assay: Adenosine receptor binding, mA2AAR; details: read-out: A2AAR % inhibition (converted)
Sequence of mA2AAR (Q60613 whole entry): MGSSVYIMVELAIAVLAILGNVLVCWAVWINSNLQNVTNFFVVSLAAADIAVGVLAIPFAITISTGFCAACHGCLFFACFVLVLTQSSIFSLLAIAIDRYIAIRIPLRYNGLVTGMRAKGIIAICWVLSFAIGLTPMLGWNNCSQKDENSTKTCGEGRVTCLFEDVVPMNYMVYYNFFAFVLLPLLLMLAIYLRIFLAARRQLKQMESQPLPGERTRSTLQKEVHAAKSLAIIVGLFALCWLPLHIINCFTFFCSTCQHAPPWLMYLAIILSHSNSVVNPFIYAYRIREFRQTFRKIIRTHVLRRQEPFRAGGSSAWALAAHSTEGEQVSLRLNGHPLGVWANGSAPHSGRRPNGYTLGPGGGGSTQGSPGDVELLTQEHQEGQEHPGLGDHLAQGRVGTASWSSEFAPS

hA3AR = target: T4, hA3AR (Homo sapiens, UniProt P0DMS8); assay: Radioligand binding in membranes of CHO cells expressing hA3AR; details: read-out: A3AR % inhibition or Ki; for Ki: (h)
T4 construct: expressed in transfected cells; host or cells: CHO
T4 sequence (P0DMS8 1-318): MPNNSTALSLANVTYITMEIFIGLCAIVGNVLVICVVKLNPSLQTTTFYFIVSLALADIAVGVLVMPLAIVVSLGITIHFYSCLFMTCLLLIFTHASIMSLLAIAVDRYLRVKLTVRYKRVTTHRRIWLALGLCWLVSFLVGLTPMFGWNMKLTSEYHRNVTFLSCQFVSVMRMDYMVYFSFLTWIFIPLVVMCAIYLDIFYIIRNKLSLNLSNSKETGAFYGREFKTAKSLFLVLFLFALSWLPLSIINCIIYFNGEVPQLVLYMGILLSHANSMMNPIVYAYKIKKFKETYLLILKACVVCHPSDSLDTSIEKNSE

mA3AR = target: T5, mA3AR (Mus musculus, UniProt Q61618); assay: Adenosine receptor binding, mA3AR; details: (m); Ki; read-out: A3AR % inhibition or Ki (converted)
T5 sequence (Q61618 1-319): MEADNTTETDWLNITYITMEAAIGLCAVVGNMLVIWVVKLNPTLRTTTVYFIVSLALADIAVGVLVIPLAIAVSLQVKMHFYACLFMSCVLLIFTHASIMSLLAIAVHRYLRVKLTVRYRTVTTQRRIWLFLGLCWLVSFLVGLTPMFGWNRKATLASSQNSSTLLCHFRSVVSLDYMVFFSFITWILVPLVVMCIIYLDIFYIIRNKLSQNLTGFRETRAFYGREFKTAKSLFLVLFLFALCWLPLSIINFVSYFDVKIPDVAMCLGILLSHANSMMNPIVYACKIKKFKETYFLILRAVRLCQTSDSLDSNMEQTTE

sigma receptor σ2 = sigma receptor σ2 (UniProt Q5BJF2); assay: Off-target interaction determined by the PDSP; assay type: binding, human; details: read-out: Off-target, receptor (h, unless noted) (Ki, μM): σ2
serotonin receptor 5HT2C = target: T6, serotonin receptor 5HT2C (Homo sapiens, UniProt P28335); assay: Off-target interaction determined by the PDSP; assay type: binding; details: read-out: Off-target, receptor (h, unless noted) (Ki, μM): 5HT2C
T6 sequence (P28335 33-458): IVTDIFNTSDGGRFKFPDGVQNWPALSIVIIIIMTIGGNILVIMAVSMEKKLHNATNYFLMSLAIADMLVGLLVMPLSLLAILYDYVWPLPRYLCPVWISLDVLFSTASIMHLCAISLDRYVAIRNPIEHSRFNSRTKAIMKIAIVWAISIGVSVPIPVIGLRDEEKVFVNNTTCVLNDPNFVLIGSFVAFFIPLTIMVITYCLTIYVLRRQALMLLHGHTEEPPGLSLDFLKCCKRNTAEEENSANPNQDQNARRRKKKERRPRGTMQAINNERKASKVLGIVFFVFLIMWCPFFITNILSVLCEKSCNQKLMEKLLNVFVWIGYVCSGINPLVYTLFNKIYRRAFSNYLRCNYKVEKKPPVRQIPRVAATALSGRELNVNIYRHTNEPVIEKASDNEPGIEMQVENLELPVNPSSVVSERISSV

serotonin receptor 5HT2B = serotonin receptor 5HT2B (Homo sapiens, UniProt P41595); assay: Off-target interaction determined by the PDSP; assay type: binding; details: read-out: Off-target, receptor (h, unless noted) (Ki, μM): 5HT2B
Sequence of serotonin receptor 5HT2B (P41595 whole entry): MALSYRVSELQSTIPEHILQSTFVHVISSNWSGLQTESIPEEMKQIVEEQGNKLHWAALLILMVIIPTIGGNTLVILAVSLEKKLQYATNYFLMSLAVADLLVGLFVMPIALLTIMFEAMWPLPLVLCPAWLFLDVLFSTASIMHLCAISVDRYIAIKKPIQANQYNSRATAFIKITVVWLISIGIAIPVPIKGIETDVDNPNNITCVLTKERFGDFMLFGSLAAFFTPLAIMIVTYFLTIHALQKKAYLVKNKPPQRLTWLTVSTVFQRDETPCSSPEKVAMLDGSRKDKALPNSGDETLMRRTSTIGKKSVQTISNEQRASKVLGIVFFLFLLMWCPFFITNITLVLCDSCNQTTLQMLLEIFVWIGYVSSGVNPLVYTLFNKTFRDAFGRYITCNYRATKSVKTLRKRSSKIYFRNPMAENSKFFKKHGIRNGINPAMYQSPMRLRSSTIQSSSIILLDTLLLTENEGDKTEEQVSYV

wild-type C57BL/6J mice [1] = assay: Hypothermia (Tb by telemetry) after ip dosing; assay type: in vivo, mouse; details: average from dosing to 60 min, mean±SD
Experimental: (§1) Compounds were dosed ip. Tb and activity were measured by telemetry and the averages from dosing to 60 min were calculated. […] Data are for the highest dose used and are mean±SD from 3 to 22 mice/group (usually 5-7). P values are unpaired t-Test vs vehicle-treated controls assayed simultaneously. Vehicle data are mean±SD from all (n=83) vehicle treated mice.

wild-type C57BL/6J mice [2] = assay: Locomotor activity by telemetry after ip dosing; assay type: in vivo, mouse; details: average from dosing to 60 min, mean±SD
Experimental: as §1

sigma receptor σ1 = sigma receptor σ1 (Homo sapiens, UniProt Q99720); assay: Off-target interaction determined by the PDSP; assay type: binding; details: read-out: Off-target, receptor (h, unless noted) (Ki, μM): σ1
Sequence of sigma receptor σ1 (Q99720 whole entry): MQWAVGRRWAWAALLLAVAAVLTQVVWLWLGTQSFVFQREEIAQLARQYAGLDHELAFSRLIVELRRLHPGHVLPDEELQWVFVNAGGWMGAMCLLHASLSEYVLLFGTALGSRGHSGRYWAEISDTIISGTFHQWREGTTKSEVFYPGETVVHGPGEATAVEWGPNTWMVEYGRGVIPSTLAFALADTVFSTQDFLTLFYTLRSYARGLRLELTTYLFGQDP

[3] = test system: off-target receptors (PDSP); assay: Off-target interactions determined by the PDSP, whole screen; assay type: binding, human; details: no off-target interaction listed
[4] = target: TSPO (translocator protein) (UniProt P30536); assay: Off-target interaction determined by the PDSP; assay type: binding, human; details: for Ki: read-out: Off-target, receptor (h, unless noted) (Ki, μM): TSPO
[5] = (m), Ki, read-out: A1AR % inhibition or Ki (converted)

SMILES | inhibition at 10 µM (hA2AAR) | Ki (hA3AR) | Ki (hA1AR) | Ki (hA2AAR) | Ki (mA1AR; [5]) | Ki (mA3AR) | also measured
O[C@@H]1[C@H](O)[C@@H](CCl)O[C@H]1n1cnc2c(NC3CC4CCC3C4)ncnc21 (some centres unmarked) [Compound 4, reference compound] | – | – | – | – | 0.2 nM | 2410 nM | Tb (° C.) (wild-type C57BL/6J mice [1]; 3 mg/kg ip): 32.2 ± 1.3 °C; Activity (counts) (wild-type C57BL/6J mice [2]; 3 mg/kg ip): 2.8 ± 1.6 counts
NC(=O)c1ncn([C@@H]2O[C@H](CO)[C@@H](O)[C@H]2O)n1 [Compound 38, ribavirin, reference compound] | 23 ± 6% | – | – | – | – | – | inhibition at 10 µM (hA3AR): 16 ± 5%
CCNC(=O)[C@H]1O[C@@H](n2cnc3c(N)ncnc32)[C@H](O)[C@@H]1O [Compound 16, reference compound] | – | – | – | – | – | – | Off-target, receptor (h, unless noted) [3]: none
O[C@@H]1[C@H](O)[C@@H](CCl)O[C@H]1n1cnc2c(NC(C3CCC3)C3CCC3)ncnc21 [Compound 10, (2S,3S,4R,5R)-2-(Chloromethyl)-5-(6-((dicyclobutylmethyl)amino)-9H-purin-9-yl)tetrahydrofuran-3,4-diol] | – | 16600 nM | 4.9 ± 0.87 nM | 5200 nM | 0.71 nM | 2110 nM | Ki [4]: 3.98 µM; Ki (sigma receptor σ1): 0.69 µM; Ki (sigma receptor σ2): 0.662 µM; Tb (° C.) (wild-type C57BL/6J mice [1]; 10 mg/kg ip): 35.8 ± 0.1 °C; Activity (counts) (wild-type C57BL/6J mice [2]; 10 mg/kg ip): 20.5 ± 4.6 counts
O[C@@H]1[C@H](O)[C@@H]2C[C@@H]2[C@H]1n1cnc2c(NC(C3CC3)C3CC3)nc(Cl)nc21 [Compound 7, reference compound] | – | – | – | – | – | – | Tb (° C.) (wild-type C57BL/6J mice [1]; 3 mg/kg ip): 33.4 ± 1.7 °C; Activity (counts) (wild-type C57BL/6J mice [2]; 3 mg/kg ip): 5.5 ± 4.1 counts
CNC(=O)[C@@]12C[C@@H]1[C@@H](n1cnc3c(NC4CCCC4)nc(Cl)nc31)[C@H](O)[C@@H]2O [Compound 6e, reference compound] | – | 3.7 ± 0.9 nM | 18.3 ± 6.3 nM | 3250 ± 300 nM | 0.68 nM | 3.46 ± 0.13 nM | Ki (sigma receptor σ1): 1.55 µM; Ki (serotonin receptor 5HT2B): 0.012 µM
CCSC[C@H]1O[C@@H](n2cnc3c(NC(C4CCC4)C4CCC4)ncnc32)[C@H](O)[C@@H]1O [Compound 11, (2R,3R,4S,5S)-2-(6-((Dicyclobutylmethyl)amino)-9H-purin-9-yl)-5-((ethylthio)methyl)tetrahydrofuran-3,4-diol] | 30 ± 5% | 6220 ± 1480 nM | 63.4 ± 12.1 nM | – | 3.58 nM | 718 nM | Off-target: TSPO (% inhib.) ([4]; footnote j not given): 90%; Ki (sigma receptor σ1): 0.626 µM; Ki (sigma receptor σ2): 0.642 µM
O=C(NC1CC1)[C@@]12C[C@@H]1[C@@H](n1cnc3c(N[C@H]4C[C@H]5CC[C@@H]4C5)nc(Cl)nc31)[C@H](O)[C@@H]2O [Compound 36, (1S,2R,3S,4R,5S)-4-(6-(((1R,2S,4S)-bicyclo[2.2.1]heptan-2-yl)amino)-2-chloro-9H-purin-9-yl)-N-cyclopropyl-2,3-dihydroxybicyclo[3.1.0]hexane-1-carboxamide] | – | 59 ± 17.8 nM | 1.22 ± 0.05 nM | 520 ± 119 nM | 0.45 nM | 29.5 nM | Ki (mA2AAR; (m), values without % sign (Ki)): 2650 nM; Ki (serotonin receptor 5HT2B): 1.57 µM
Nc1ncnc2c1ncn2[C@@H]1O[C@H](C(=O)NCCO)[C@@H](O)[C@H]1O [Compound 18, reference compound] | – | 9450 nM | 12.8 nM | 505 ± 30 nM | – | – | –
OC[C@H]1O[C@@H](n2cnc3c(NC(C4CCC4)C4CCC4)nc(Cl)nc32)[C@H](O)[C@@H]1O [Compound 12, (2R,3R,4R,5R)-2-(2-Chloro-6-((dicyclobutylmethyl)amino)-9H-purin-9-yl)-5-(hydroxymethyl)tetrahydrofuran-3,4-diol] | – | 13200 nM | 17.8 ± 8.7 nM | 2550 ± 540 nM | – | 653 nM | Ki (mA1AR; Table 7, repeats the binding tables, read-out: Binding Ki for mA1AR): 0.65 nM; Ki (serotonin receptor 5HT2C): 1.45 µM
CCOC(=O)[C@@]12C[C@@H]1[C@@H](n1cnc3c(NC(C4CC4)C4CC4)nc(Cl)nc31)[C@@H]1OC(C)(C)O[C@@H]12 [Compound 33] | 15 ± 2% | – | – | – | – | – | inhibition at 10 µM (hA1AR): 49 ± 9%; inhibition at 10 µM (hA3AR): 41 ± 6%
CCOC(=O)[C@@]12C[C@@H]1[C@@H](n1cnc3c(NC(C4CC4)C4CC4)nc(Cl)nc31)[C@H](O)[C@@H]2O [Compound 32] | – | 236 ± 41 nM | 360 ± 74 nM | – | – | – | Ki (serotonin receptor 5HT2C): 0.054 µM; Ki (serotonin receptor 5HT2B): 0.015 µM

More lines, main results first:

inhibition at 10 µM (hA2AAR) | Ki (hA3AR) | Ki (hA1AR) | Ki (hA2AAR) | SMILES | Ki (mA1AR; [5]) | Ki (mA3AR) | also measured
22 ± 5% | 9750 ± 4030 nM | – | – | O[C@H]1[C@H](n2cnc3c(NC(C4CCC4)C4CCC4)nc(Cl)nc32)[C@H]2C[C@@]2(CSc2ccccc2F)[C@H]1O [Compound 28, (1S,2R,3S,4R,5S)-4-(2-Chloro-6-((dicyclobutylmethyl)amino)-9H-purin-9-yl)-1-(((2-fluorophenyl)thio)methyl)bicyclo[3.1.0]hexane-2,3-diol] | 2490 nM | 7440 nM | inhibition at 10 µM (hA1AR): 45 ± 4%; inhibition at 10 µM (mA2AAR): 20%; Ki (sigma receptor σ2): 0.583 µM; Ki (serotonin receptor 5HT2C): 1.46 µM; Ki (serotonin receptor 5HT2B): 0.334 µM
– | 253 ± 148 nM | 7.61 ± 0.73 nM | 1750 ± 290 nM | Nc1nc(Cl)nc2c1ncn2[C@H]1[C@H](O)[C@H](O)[C@]2(CCl)C[C@H]12 [Compound 22] | – | – | Ki (sigma receptor σ1): 1.97 µM; Ki (sigma receptor σ2): 2.55 µM
11 ± 4% | – | – | – | Nc1ncnc2c1ncn2[C@@H]1O[C@H](C(=O)O)[C@@H](O)[C@H]1O [Compound 14] | – | – | inhibition at 10 µM (hA1AR): 24 ± 4%; inhibition at 10 µM (hA3AR): 32%; Ki (sigma receptor σ1): 1.48 µM; Ki (sigma receptor σ2): 0.796 µM
46 ± 6% | – | – | – | O[C@@H]1[C@H](O)[C@@H]2C[C@@H]2[C@H]1n1cnc2c(NC(C3CCC3)C3CCC3)nc(Cl)nc21 [Compound 19] | – | – | Ki [4]: 2.38 µM
– | 34 ± 11 nM | 110 ± 14 nM | 4320 ± 1870 nM | CNC(=O)[C@@]12C[C@@H]1[C@@H](n1cnc3c(NC(C4CC4)C4CC4)nc(Cl)nc31)[C@H](O)[C@@H]2O [Compound 34] | – | – | Ki (serotonin receptor 5HT2C): 0.749 µM; Ki (serotonin receptor 5HT2B): 0.023 µM
